Experimental data taken from the NIST ThermoML archive (doi:10.1021/je0340755).
Numbers after ± are expanded uncertainties.

Assay: xn = mol fraction of the nth substance listed
Details: 101.3 kPa, Liquid; for viscosity: Capillary tube (Ostwald / Ubbelohde) method

CC(O)CO (configuration not stated) [1,2-propanediol] + O
Details	mass density, 308.15 K [kg/m3]	mass density, 318.15 K [kg/m3]	speed of sound, 308.15 K [m/s]	speed of sound, 318.15 K [m/s]	viscosity, 308.15 K [mPa·s]	viscosity, 318.15 K [mPa·s]
x2 = 0.044	1026.01 ± 0.41	1017.94 ± 0.39	1502.9 ± 6.2	1451.7 ± 6.1	–	–
x2 = 0.0987	1026.76 ± 0.41	1018.71 ± 0.39	1509.5 ± 6.3	1458.8 ± 6.1	–	–
x2 = 0.1484	1027.45 ± 0.4	1019.41 ± 0.38	1513.1 ± 6.3	1463.2 ± 6.1	–	–
x2 = 0.2498	1028.92 ± 0.4	1020.89 ± 0.37	1524.5 ± 6.3	1476.1 ± 6.2	–	–
x2 = 0.3494	1030.43 ± 0.39	1022.37 ± 0.37	1541.8 ± 6.3	1495.1 ± 6.2	–	–
x2 = 0.4494	1031.91 ± 0.39	1023.79 ± 0.36	1565.2 ± 6.4	1520.3 ± 6.3	–	–
x2 = 0.5029	1032.59 ± 0.38	1024.44 ± 0.36	1581.4 ± 6.5	1537.6 ± 6.3	–	5.202 ± 0.068
x2 = 0.5499	1033.05 ± 0.38	1024.88 ± 0.36	1598.4 ± 6.5	–	–	4.639 ± 0.068
x2 = 0.5597	1033.12 ± 0.38	–	1602.2 ± 6.5	–	–	4.528 ± 0.068
x2 = 0.6501	1033.19 ± 0.37	–	1640 ± 6.6	–	–	3.576 ± 0.066
x2 = 0.7499	1031.14 ± 0.36	–	1672.3 ± 6.7	–	–	2.675 ± 0.065
x2 = 0.85	1024.53 ± 0.34	–	1660.9 ± 6.7	–	–	1.864 ± 0.064
x2 = 0.9003	1018.14 ± 0.31	–	1628.3 ± 6.6	–	–	1.462 ± 0.064
x2 = 0.9115	1016.3 ± 0.31	–	1618.4 ± 6.6	–	–	1.37 ± 0.063
x2 = 0.9154	1015.63 ± 0.31	–	1614.8 ± 6.6	–	–	1.338 ± 0.063
x2 = 0.927	1013.47 ± 0.3	–	1603.4 ± 6.5	–	–	1.242 ± 0.063
x2 = 0.9367	1011.51 ± 0.29	–	1593.2 ± 6.5	–	–	1.16 ± 0.063
x2 = 0.9504	1008.45 ± 0.28	–	1578 ± 6.4	–	1.227 ± 0.063	1.043 ± 0.063
x2 = 0.9551	1007.32 ± 0.28	–	1572.6 ± 6.4	–	1.177 ± 0.063	1.003 ± 0.063
x2 = 0.96	1006.1 ± 0.27	–	1566.9 ± 6.4	–	1.124 ± 0.063	0.96 ± 0.063
x2 = 0.9696	1003.55 ± 0.27	–	1555.5 ± 6.4	–	1.023 ± 0.063	0.876 ± 0.063
x2 = 0.9797	1000.65 ± 0.26	–	1543.3 ± 6.3	–	0.919 ± 0.063	0.784 ± 0.063
x2 = 0.9902	997.36 ± 0.26	–	1530.7 ± 6.3	–	0.815 ± 0.063	0.688 ± 0.063
x2 = 0.9923	996.67 ± 0.27	–	1528.2 ± 6.3	–	0.794 ± 0.063	0.668 ± 0.063
x2 = 0.9948	995.83 ± 0.27	–	1525.2 ± 6.3	–	0.769 ± 0.063	0.645 ± 0.063
